Measurements: patent US20120077836A1, “METHODS OF ADMINISTERING (4AR,10AR)-1-N-PROPYL-1,2,3,4,4A,5,10,10A-OCTAHYDROBENZO [G] QUINOLINE-6,7-DIOL AND RELATED COMPOUNDS ACROSS THE ORAL MUCOSA, THE NASAL MUCOSA OR THE SKIN AND PHARMACEUTICAL COMPOSITIONS THEREOF” (priority 2009, published 2012)
Counter-ions that a name gives are not always drawn. Like-named read-outs stand apart in the source and are kept apart here.

Assay: Intravenous and buccal pharmacokinetic study in the minipig
Format: in vivo
Details: male, Göttingen, in vivo
Protocol: The test article was compound 10. The vehicles for the test article were Sterile saline (0.9% NaCl) (intravenous administration) supplied by Baxter, Norfolk or Ascorbic acid reconstituted in Water for Injection (buccal administration) supplied by VWR International, Leicestershire. Formulations were prepared on the day of dosing.
Three male minipigs of the Göttingen ApS strain were supplied by Ellegaard Göttingen, Dalmose, Denmark. At initiation of dosing, animals were approximately 15 to 17 weeks old. Each animal was dosed once on three separate occasions according to the following study design:
Animals were deprived of food overnight and anaesthetised with isoflurane in oxygen (administered by facemask), prior to each dosing occasion.
Intravenous administrations were performed by slow manual injection via a temporary catheter placed in the ear vein whilst under anaesthesia, animals were allowed to recover from the anaesthesia immediately after dosing. Whilst anaesthetised, a catheter was inserted into the jugular vein and secured in place for the purpose of blood collection. The catheter was filled with heparin (250 iu/mL in 0.9% sodium chloride). The exterior portion of the catheter was routed from the ventral neck to the dorsum of the minipig and protected by bandaging. The distal end of the catheter was capped and placed in a re-sealable pouch within the bandage. The jugular catheter was retained in place and flushed with heparinised saline every 24 hours.
Buccal administrations were performed by applying the test formulation to the buccal membrane for 5 minutes while the animal was anaesthetised. Any residual formulation remaining in the mouth after the 5 minute application was […]. Animals were allowed to recover from the anaesthesia immediately after dosing.
, all animals on Day 3 following buccal administration of a low dose and all animals on Day 5 following buccal administration of a high dose for pharmacokinetic analysis. The samples (1.0 mL) were collected from the jugular vein (via catheter) into tubes containing EDTA anticoagulant. Prior to addition of the blood sample, 100 microL of a stabiliser (2% beta-mercaptoethanol containing 20 mg/mL ascorbic acid) was added to each pot. The stabiliser was prepared fresh on each day of sample collection. Samples were collected as follows: • Day 1: 5, 10, 15, 30 and 45 minutes and 1, 2, 4, 6, 8, 12 and 16 hours post-dose • Day 3: pre-dose and at 5, 10, 15, 30 and 45 minutes and 1, 2, 4, 6, 8, 12, 16 and 24 hours post-dose • Day 5: pre-dose and at 5, 10, 15, 30 and 45 minutes and 1, 2, 4, 6, 8, 12, 16 and 24 hours post-dose
The times of the blood sampling were generally adhered to. The greatest deviation from the scheduled timepoints was one minute late at the 5 minute timepoint on Day 3. The blood samples were centrifuged within one hour of sample collection and the resultant plasma was frozen prior to analysis.
The plasma concentrations of compound 10 were determined after solid phase extraction of the plasma samples followed by high performance liquid chromatography with tandem mass spectrometric detection (LC-MS/MS) using a sample volume of about 100 microL.
Internal standard solution, containing the internal standard of compound 10 was added to thawed plasma samples (100 microL aliquot). The SPE plate (Oasis HLB, 10 mg) was conditioned with methanol (500 microL) followed by water (500 microL). The sample (approx. 500 microL aliquot) was transferred to the pre-conditioned SPE plate. The sample was then passed through the cartridge, which was then washed with water:methanol (90:10 v/v, 0.5 mL). The sample was then eluted into a fresh 96 well polypropylene collection plate with 20 mM ammonium formate (aq): acetonitrile: formic acid (50:50:2 v/v/v, 250 microL). The organic component of the eluted samples was then evaporated under a gentle stream of nitrogen until approximately 50% of the original volume was remaining. […]

## CCCN1CCC[C@@H]2Cc3c(ccc(O)c3O)C[C@H]21 [compound 10, (4aR,10aR)-1-n-Propyl-1,2,3,4,4a,5,10,10a-octahydro-benzo[g]quinoline-6,7-diol hydrobromide]
0.01 mg/kg, buccal 0.010 mg/kg, mean, read-out: Plasma concentration Day 3 Hour 0.17, Mean
  concentration at 0.17 h: 0.148 ng/mL
0.01 mg/kg, buccal 0.010 mg/kg, mean, read-out: Plasma concentration Day 3 Hour 0.25, Mean
  concentration at 0.25 h: 0.314 ng/mL
0.01 mg/kg, buccal 0.010 mg/kg, mean, read-out: Plasma concentration Day 3 Hour 0.5, Mean
  concentration at 0.5 h: 0.752 ng/mL
0.01 mg/kg, buccal 0.010 mg/kg, mean, read-out: Plasma concentration Day 3 Hour 0.75, Mean
  concentration at 0.75 h: 1.04 ng/mL
0.01 mg/kg, buccal 0.010 mg/kg, mean, read-out: Plasma concentration Day 3 Hour 1, Mean
  concentration at 1 h: 0.869 ng/mL
0.01 mg/kg, buccal 0.010 mg/kg, mean, read-out: Plasma concentration Day 3 Hour 2, Mean
  concentration at 2 h: 0.487 ng/mL
0.01 mg/kg, buccal 0.010 mg/kg, range, read-out: bioavailability
  bioavailability: 30 to 42%
0.01 mg/kg, buccal 0.010 mg/kg, read-out: bioavailability, mean values
  bioavailability: 31 to 35%
0.01 mg/kg, buccal 0.010 mg/kg, read-out: mean apparent terminal half-life (converted)
  half-life: 5.1 h
0.04 mg/kg, buccal 0.040 mg/kg, animal 1
  Tmax: 1 h
0.04 mg/kg, buccal 0.040 mg/kg, individual animals 1-3, read-out: Plasma concentration Day 5 Hour 0.5
  concentration at 0.5 h: 7.88 ng/mL
0.04 mg/kg, buccal 0.040 mg/kg, individual animals 1-3, read-out: Plasma concentration Day 5 Hour 0.75
  concentration at 0.75 h: 15.9 ng/mL
0.04 mg/kg, buccal 0.040 mg/kg, individual animals 1-3, read-out: Plasma concentration Day 5 Hour 1
  concentration at 1 h: 11.9 ng/mL
0.04 mg/kg, buccal 0.040 mg/kg, mean, read-out: Plasma concentration Day 1 Hour 4, Mean
  concentration at 4 h: 1.93 ng/mL
0.04 mg/kg, buccal 0.040 mg/kg, mean, read-out: Plasma concentration Day 1 Hour 6, Mean
  concentration at 6 h: 0.93 ng/mL
0.04 mg/kg, buccal 0.040 mg/kg, mean, read-out: Plasma concentration Day 1 Hour 8, Mean
  concentration at 8 h: 0.522 ng/mL
0.04 mg/kg, buccal 0.040 mg/kg, mean, read-out: Plasma concentration Day 1 Hour 12, Mean
  concentration at 12 h: 0.604 ng/mL
0.04 mg/kg, buccal 0.040 mg/kg, mean, read-out: Plasma concentration Day 1 Hour 16, Mean
  concentration at 16 h: 0.292 ng/mL
0.04 mg/kg, buccal 0.040 mg/kg, mean, read-out: Plasma concentration Day 1 Hour 24, Mean
  concentration at 24 h: 0.119 ng/mL
0.04 mg/kg, buccal 0.040 mg/kg, mean, read-out: Plasma concentration Day 5 Hour 0.08, Mean
  concentration at 0.08 h: 1.29 ng/mL
0.04 mg/kg, buccal 0.040 mg/kg, mean, read-out: Plasma concentration Day 5 Hour 0.17, Mean
  concentration at 0.17 h: 3.27 ng/mL
0.04 mg/kg, buccal 0.040 mg/kg, mean, read-out: Plasma concentration Day 5 Hour 0.25, Mean
  concentration at 0.25 h: 5.45 ng/mL
0.04 mg/kg, buccal 0.040 mg/kg, mean, read-out: Plasma concentration Day 5 Hour 0.5, Mean
  concentration at 0.5 h: 7.14 ng/mL
0.04 mg/kg, buccal 0.040 mg/kg, mean, read-out: Plasma concentration Day 5 Hour 0.75, Mean
  concentration at 0.75 h: 12.4 ng/mL
0.04 mg/kg, buccal 0.040 mg/kg, mean, read-out: Plasma concentration Day 5 Hour 1, Mean
  concentration at 1 h: 10.8 ng/mL
0.04 mg/kg, buccal 0.040 mg/kg, mean, read-out: Plasma concentration Day 5 Hour 2, Mean
  concentration at 2 h: 6.3 ng/mL
0.04 mg/kg, buccal 0.040 mg/kg, range, read-out: bioavailability
  bioavailability: 73 to 136%
0.04 mg/kg, buccal 0.040 mg/kg, read-out: bioavailability, mean values
  bioavailability: 105 to 122%
0.04 mg/kg, buccal 0.040 mg/kg, read-out: mean apparent terminal half-life (converted)
  half-life: 5.6 h
IV bolus 0.0025 mg/kg, range of animals, read-out: apparent terminal elimination half-life (t½)
  half-life: 3.4 to 4.3 h
IV bolus 0.025 mg/kg (as printed in conclusion), read-out: individual apparent terminal elimination half-life
  half-life: 3.4 to 4.3 h
buccal, range in individual animals, read-out: apparent terminal elimination half-life
  half-life: 3.1 to 5.6 h
iv, 0.0025 mg/kg, IV 0.0025 mg/kg, individual animals 1-3, read-out: Plasma concentration Day 1 Hour 0.08
  concentration at 0.08 h: 1.21 ng/mL
iv, 0.0025 mg/kg, IV 0.0025 mg/kg, individual animals 1-3, read-out: Plasma concentration Day 1 Hour 0.17
  concentration at 0.17 h: 0.834 ng/mL
iv, 0.0025 mg/kg, IV 0.0025 mg/kg, individual animals 1-3, read-out: Plasma concentration Day 1 Hour 0.25
  concentration at 0.25 h: 0.74 ng/mL
iv, 0.0025 mg/kg, IV 0.0025 mg/kg, individual animals 1-3, read-out: Plasma concentration Day 1 Hour 0.5
  concentration at 0.5 h: 0.562 ng/mL
iv, 0.0025 mg/kg, IV 0.0025 mg/kg, individual animals 1-3, read-out: Plasma concentration Day 1 Hour 0.75
  concentration at 0.75 h: 0.534 ng/mL
iv, 0.0025 mg/kg, IV 0.0025 mg/kg, individual animals 1-3, read-out: Plasma concentration Day 1 Hour 1
  concentration at 1 h: 0.379 ng/mL
iv, 0.0025 mg/kg, IV 0.0025 mg/kg, individual animals 1-3, read-out: Plasma concentration Day 1 Hour 2
  concentration at 2 h: 0.198 ng/mL
iv, 0.0025 mg/kg, IV 0.0025 mg/kg, individual animals 1-3, read-out: Plasma concentration Day 1 Hour 4
  concentration at 4 h: 0.0748 ng/mL
iv, 0.0025 mg/kg, IV 0.0025 mg/kg, individual animals 1-3, read-out: Plasma concentration Day 1 Hour 6
  concentration at 6 h: 0.0476 ng/mL
iv, 0.0025 mg/kg, IV 0.0025 mg/kg, individual animals 1-3, read-out: Plasma concentration Day 1 Hour 8
  concentration at 8 h: 0.0245 ng/mL
iv, 0.0025 mg/kg, IV 0.0025 mg/kg, individual animals 1-3, read-out: Plasma concentration Day 1 Hour 12
  concentration at 12 h: 0.017 ng/mL
iv, 0.0025 mg/kg, IV 0.0025 mg/kg, individual animals 1-3, values below LLOQ 10 pg/mL estimated, read-out: Plasma concentration Day 1 Hour 16
  concentration at 16 h: 0.00858 ng/mL
iv, 0.0025 mg/kg, IV 0.0025 mg/kg, mean, read-out: Plasma concentration Day 1 Hour 0.08, Mean
  concentration at 0.08 h: 1.62 ng/mL
iv, 0.0025 mg/kg, IV 0.0025 mg/kg, mean, read-out: Plasma concentration Day 1 Hour 0.17, Mean
  concentration at 0.17 h: 1.02 ng/mL
iv, 0.0025 mg/kg, IV 0.0025 mg/kg, mean, read-out: Plasma concentration Day 1 Hour 0.25, Mean
  concentration at 0.25 h: 0.913 ng/mL
iv, 0.0025 mg/kg, IV 0.0025 mg/kg, mean, read-out: Plasma concentration Day 1 Hour 0.5, Mean
  concentration at 0.5 h: 0.673 ng/mL
iv, 0.0025 mg/kg, IV 0.0025 mg/kg, mean, read-out: Plasma concentration Day 1 Hour 0.75, Mean
  concentration at 0.75 h: 0.619 ng/mL
iv, 0.0025 mg/kg, IV 0.0025 mg/kg, mean, read-out: Plasma concentration Day 1 Hour 1, Mean
  concentration at 1 h: 0.421 ng/mL
iv, 0.0025 mg/kg, IV 0.0025 mg/kg, mean, read-out: Plasma concentration Day 1 Hour 2, Mean
  concentration at 2 h: 0.249 ng/mL
iv, 0.0025 mg/kg, IV 0.0025 mg/kg, mean, read-out: Plasma concentration Day 1 Hour 4, Mean
  concentration at 4 h: 0.0887 ng/mL
iv, 0.0025 mg/kg, IV 0.0025 mg/kg, mean, read-out: Plasma concentration Day 1 Hour 6, Mean
  concentration at 6 h: 0.0598 ng/mL
iv, 0.0025 mg/kg, IV 0.0025 mg/kg, mean, read-out: Plasma concentration Day 1 Hour 8, Mean
  concentration at 8 h: 0.033 ng/mL
iv, 0.0025 mg/kg, IV 0.0025 mg/kg, mean, read-out: Plasma concentration Day 1 Hour 12, Mean
  concentration at 12 h: 0.0226 ng/mL
iv, 0.0025 mg/kg, IV 0.0025 mg/kg, mean, read-out: Plasma concentration Day 1 Hour 16, Mean
  concentration at 16 h: 0.00931 ng/mL
